Laboratory results taken from a melting point compilation (Tetko et al.).

| Structure (SMILES) | melting point [°C] |
| --- | --- |
| Fc1ccc(-c2csc(Nc3ccccc3)n2)cc1 | 91 to 93 |
| NC(=O)C1CCCN(C(=O)CCl)C1 (configuration not stated) | 124 to 126 |
| NNC(=S)NCc1ccc(F)cc1 | 140 to 142 |
| Cc1[nH]c(N)c(C#N)c1C | 149 to 151 |
| NNC(=O)NCC1CCCO1 (configuration not stated) | 79 to 81 |
| CN1C(=O)CC(C(=O)O)C1c1cccc(Cl)c1 (configuration not stated) | 155 to 157 |
| O=C(O)C1CC1c1cccc(C(F)(F)F)c1 (configuration not stated) | 84 to 86 |
| O=S1(=O)NC=Nc2ccccc21 | 222 to 224 |
| CC(C)NC(=O)C(=O)NN | 158 to 160 |
| Nc1ccc(O)cc1C(=O)NCc1ccccc1 | 154 to 156 |
| COCCOc1cc2c(cc1CO)OCO2 | 56 to 58 |
| Clc1ccc2cccc(Br)c2n1 | 112 to 114 |
| CCOC(=O)CC(=O)CN1C(=O)c2ccccc2S1(=O)=O | 104 to 106 |
| COc1ccc(C(=O)Nc2nc(C)cs2)cc1N | 164 to 166 |
| CCCc1nc(C(=O)O)nn1-c1ccccc1F | 137 to 139 |
| O=C(O)c1cccc(S(=O)(=O)NCc2cccnc2)c1 | 231 to 233 |
| Cc1ccc(C(=O)O)cc1S(=O)(=O)Cl | 140 to 147 |
| CC(C)c1cc(O)ncn1 | 131 to 133 |
| CC(CC(=O)O)S(=O)(=O)c1ccc(F)cc1 (configuration not stated) | 126 to 128 |

| Structure (SMILES) | melting point [°C] |
| --- | --- |
| Cc1ccc(N)cc1-n1nnnc1C | 139 to 141 |
| NNc1ccc(S(=O)(=O)NC2CCCC2)cn1 | 167 to 169 |
| CC(=O)N(C)c1ccccc1N | 146 to 148 |
| Nc1ccncc1F | 71 to 79 |
| OCc1nc2ccccc2n1C(F)F | 150 to 152 |
| CCOC(=O)c1c(C)nn(C)c1N | 101 to 103 |
| O=C(CCl)NCC(=O)c1cccs1 | 133 to 135 |
| CCOc1ccc(NS(=O)(=O)c2ccc(C)c(N)c2)cc1 | 116 to 118 |
| O=C(O)c1cccc(Nc2cnccn2)c1 | 239 to 241 |
| CCOC(=O)c1nc(C)n[nH]1 | 184 to 186 |
| COc1ccc(C(=O)NCCCC(=O)O)cc1 | 122 to 124 |
| Cc1ccccc1/C=C/c1cc(C(=O)O)c2cc(Br)ccc2n1 | 289 to 291 |
| Sc1nnc(-c2ccncc2)n1-c1ccccc1 | 290 to 292 |
| O=C(Nc1sccc1C(=O)O)c1ccc2c(c1)CCC2 | 214 to 216 |
| CCn1ncc2ccc(N)cc21 | 117 to 119 |
| C1CN(CCC23CC4CC(CC(C4)C2)C3)CCN1 | 76 to 78 |
| CS(=O)(=O)c1cccc(C(=O)c2ccc(F)c(F)c2)c1 | 122 to 124 |
| Cc1nn(-c2ccc(F)cc2)c(Cl)c1C(=O)O | 253 to 255 |
| Clc1nccc2ccn(Cc3ccccc3)c12 | 75 to 77 |

| Structure (SMILES) | melting point [°C] |
| --- | --- |
| O=C(O)C(F)(F)c1ccc([N+](=O)[O-])cc1 | 129 to 131 |
| Fc1ccc(C2CNCCO2)cc1 (configuration not stated) | 56 to 58 |
| COc1ccc2[nH]c(C)c(C(=O)CCl)c2c1 | 224 to 226 |
| CCc1c(C(=O)O)cnn1C(C)(C)C | 133 to 135 |
| CN(C(=O)CCl)C1(C#N)CCCCC1 | 86 to 90 |
| CN(C)C(=O)CSc1ccccc1C(=O)O | < 17 |
| Nc1cc(Cl)c([N+](=O)[O-])cc1OCc1ccccc1 | 135 to 137 |
| NS(=O)(=O)c1cc(C(=O)O)ccc1Br | 275 to 277 |
| CCNC(=O)COc1ccc(N)cc1 | 95 to 97 |
| Nc1ccc(NC(=O)CCN2C(=O)CNC2=O)cc1 | 234 to 236 |
| O=C(O)c1cnc2cc3c(cc2c1O)OCCO3 | 274 to 276 |
| O=C(c1ccc(Cl)cc1)c1ncccn1 | 91 to 93 |
| CS(=O)(=O)CC(=O)c1ccccc1 | 106 to 108 |
| Cn1cc(C2NC(=O)CCC2N)cn1 (configuration not stated) | 164 to 166 |
| OCc1csc(-c2ccccn2)n1 | 95 to 97 |
| Nc1ccc(F)cc1-n1cccc1 | 84 to 86 |
| Cc1ccc(C)n1Cc1ccccc1Cl | 87 to 89 |
| NC(=O)CSc1ccccc1NC(=O)CCl | 129 to 131 |
| Cc1ccc(C=O)nc1 | 39 to 41 |
